Key:
[1] = test system: SARS-COV-2 South Africa variant (linage: B.1.351); experiment: microbe, parasite or virus in culture; format: cell-based; conditions: Severe acute respiratory syndrome coronavirus 2, Calu-3; read-out: IC50, South African (B.1.351) variant
[2] = test system: SARS-COV-2 Scotland variant (linage: B.1.222); experiment: microbe, parasite or virus in culture; format: cell-based; conditions: Severe acute respiratory syndrome coronavirus 2, Calu-3

SMILES	IC50 [1] [nM]	IC50 [2] [nM]
O=C1Nc2cc(C(F)(F)F)ccc2Oc2ccsc21 [formula (IIa), 7-(trifluoromethyl)benzo[b]-thieno[2,3-f][1,4]oxazepin-10(9H)-one]	3000	1390
CN1C(=O)c2ccccc2[S+]([O-])c2cc([N+](=O)[O-])ccc2S1(=O)=O (stereo not shown) [formula (Ia), 6-methyl-2-nitrodibenzo[d,g]-[1,6,2]dithiazocin-7(6H)-one 5,5, 12-trioxide]	9270	2640

From patent US20240277730A1, “SUPPRESSION OF COVID-19 REPLICATION BY COVID-19 ENTRY INHIBITORS” (Board of Regents of the University of Nebraska, priority 2021, published 2024)
